Data from patent publication EP4763838A1, “COMPOUND AND USE THEREOF” (Ocean University of China, priority 2023, dated 2025).

Biological target: T1, androgen receptor (AR) (Homo sapiens, UniProt P10275, T878A)
T1 construct: endogenous in cells; host or cells: LNCaP
Test: Reduction of androgen receptor (AR) expression levels in LNCaP cells (Western blot, DC50 and Dmax)
Type: cell-based
Details: 24 h of treatment, 0.01, 0.1, 1 and 10 µM, α-tubulin internal reference
Description: The human prostate cancer cell line LNCaP cells selected in this experiment were cultured in an RPMI-1640 culture medium containing 10% fetal bovine serum (Gibco, USA) in an incubator under the conditions of 37°C, 5% CO2 and 95% humidity. When the growth density reached 80%, the cells were inoculated into a 6-well plate with 5×10^5 cells per well. After culturing for 24 h, the culture medium was replaced with a culture medium containing the compounds so that the final concentrations of the compounds were 0.01, 0.1, 1 and 10 µM. After 24 h of treatment, the supernatant was removed, the cells were washed twice with PBS, and a RIPA lysis buffer containing a protease inhibitor and a phosphatase inhibitor was added to the cells. After lysis and centrifugation, the total protein extract was obtained. The concentration of the protein in the extract was determined by using the BCA method.
Protein electrophoresis was performed by using SDS-PAGE, followed by electrotransfer at a constant current of 200 mA for 90 min to transfer proteins onto the PVDF membrane. The PVDF membrane was placed in 5% skim milk and blocked for 1 h at room temperature. An anti-Androgen Receptor antibody [EPR1535(2)] (ab133273)(1:10000) was added for incubation overnight at 4°C. The membrane was washed with TBST for 3 times, with 10 min each time. The mixture of the membrane and a secondary antibody were incubated for 60 min at room temperature. The membrane was washed with TBST for 3 times, with 10 min each time. The ECL light-emitting liquid was dropwise added for exposure. Each sample was simultaneously detected using α-tubulin protein as an internal reference. The protein profile was analyzed for grayscale values using analysis software ImageJ. The gray scale correction value of each sample was calculated by using the formula: gray scale correction value = (gray scale value of the target protein/gray scale value of the corresponding internal reference) […] 10^3. Then, the calculated gray scale correction value was compared with a control gray scale correction value to calculate a degradation rate. Then, nonlinear curve fitting was performed on a logarithmic concentration-inhibition rate using Prism to obtain the DC50 and Dmax values of the compound.
Table 14 summarizes the evaluation of protein degraders PRTA-01 to 06 in reducing AR protein expression levels. DC50 represents the concentration of the protein degrader when it induces AR protein degradation to 50% of the initial level, and the level is classified as A (DC50<1 µM), B (DC50 1~10 µM), or C (DC50>10 µM). Dmax represents the proportion of the maximum degree of […] protein degradation induced by the protein degrader to the total AR protein amount, with the level graded as A (Dmax>85%), B (Dmax85-50%), or C (Dmax<50%). Table 14 Evaluation of protein degraders PRTA-01 to 06 in reducing AR protein expression levels

T1 sequence (P10275 whole entry T878A): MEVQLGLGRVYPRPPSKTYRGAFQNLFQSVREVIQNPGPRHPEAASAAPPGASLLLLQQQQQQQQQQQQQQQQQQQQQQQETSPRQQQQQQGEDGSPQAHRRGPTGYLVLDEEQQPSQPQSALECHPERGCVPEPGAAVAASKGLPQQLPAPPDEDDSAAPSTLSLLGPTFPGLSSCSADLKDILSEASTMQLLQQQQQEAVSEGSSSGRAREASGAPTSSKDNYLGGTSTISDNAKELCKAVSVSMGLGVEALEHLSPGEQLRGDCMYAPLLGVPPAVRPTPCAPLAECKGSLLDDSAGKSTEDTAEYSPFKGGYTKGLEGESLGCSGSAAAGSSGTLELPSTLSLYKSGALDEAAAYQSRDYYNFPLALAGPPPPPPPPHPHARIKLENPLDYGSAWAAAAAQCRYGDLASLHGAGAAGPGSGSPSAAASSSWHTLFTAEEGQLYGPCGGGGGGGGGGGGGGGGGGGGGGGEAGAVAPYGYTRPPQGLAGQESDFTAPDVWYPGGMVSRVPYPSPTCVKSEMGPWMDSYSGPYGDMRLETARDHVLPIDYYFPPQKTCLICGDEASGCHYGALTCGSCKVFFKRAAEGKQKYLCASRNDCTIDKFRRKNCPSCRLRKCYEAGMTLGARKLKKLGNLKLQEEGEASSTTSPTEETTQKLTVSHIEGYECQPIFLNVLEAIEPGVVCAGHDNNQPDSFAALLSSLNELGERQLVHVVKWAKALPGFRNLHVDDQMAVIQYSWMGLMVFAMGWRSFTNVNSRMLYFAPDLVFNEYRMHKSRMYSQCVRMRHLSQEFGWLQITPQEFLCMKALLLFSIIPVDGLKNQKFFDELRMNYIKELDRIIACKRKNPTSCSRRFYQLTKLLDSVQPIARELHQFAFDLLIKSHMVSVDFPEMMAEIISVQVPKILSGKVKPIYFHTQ
T1 sequence (Q96SW2 whole entry partner): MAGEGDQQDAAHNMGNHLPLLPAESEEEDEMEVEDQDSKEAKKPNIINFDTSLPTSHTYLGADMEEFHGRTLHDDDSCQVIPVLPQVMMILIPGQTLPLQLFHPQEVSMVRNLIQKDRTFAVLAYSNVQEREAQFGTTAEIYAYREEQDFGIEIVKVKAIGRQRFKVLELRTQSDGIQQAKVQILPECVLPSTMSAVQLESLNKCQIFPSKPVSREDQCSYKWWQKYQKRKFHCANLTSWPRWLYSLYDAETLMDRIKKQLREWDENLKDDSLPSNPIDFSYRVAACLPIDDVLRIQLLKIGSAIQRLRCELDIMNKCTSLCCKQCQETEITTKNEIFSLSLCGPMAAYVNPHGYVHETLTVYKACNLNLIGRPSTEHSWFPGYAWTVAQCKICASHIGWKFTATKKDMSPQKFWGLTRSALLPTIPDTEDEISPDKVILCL

| Compound | DC50 | Dmax |
| --- | --- | --- |
| N#Cc1ccc(O[C@H]2CC[C@H](NC(=O)c3ccc(N4CCC(CN5CCN(c6ccc(N7CCC(=O)NC7=O)nn6)CC5)CC4)nn3)CC2)cc1Cl [PRTA-03] | < 1000 nM | > 85% |
| N#Cc1ccc(O[C@H]2CC[C@H](NC(=O)c3ccc(N4CCN(CC5CCN(c6ccc(C7CCC(=O)NC7=O)nn6)CC5)CC4)cc3)CC2)cc1Cl (stereo partly drawn) [PRTA-01] | < 1000 nM | 50 to 85% |
| N#Cc1ccc(O[C@H]2CC[C@H](NC(=O)c3ccc(N4CCC(n5cc(C#Cc6ccc(C7CCC(=O)NC7=O)nn6)cn5)CC4)cc3)CC2)cc1Cl (stereo partly drawn) [PRTA-06] | < 1000 nM | > 85% |
| N#Cc1ccc(O[C@H]2CC[C@H](NC(=O)c3ccc(N4CCC(CN5CC6(C5)CN(c5ccc(C7CCC(=O)NC7=O)nn5)C6)CC4)cc3)CC2)cc1Cl (stereo partly drawn) [PRTA-05] | < 1000 nM | 50 to 85% |

Further lines, results first:

| DC50 | Dmax | Compound |
| --- | --- | --- |
| < 1000 nM | > 85% | N#Cc1ccc(OC2CCC(NC(=O)c3ccc(N4CCC(CN5CCN(c6ccc(C7CCC(=O)NC7=O)nn6)CC5)CC4)nn3)CC2)cc1Cl (stereo not drawn) [PRTA-02] |
| 1000 to 10000 nM | 50 to 85% | Cc1cc(N2CCN(CC3CCN(c4ccc(C(=O)N[C@H]5CC[C@H](Oc6ccc(C#N)c(Cl)c6)CC5)nn4)CC3)CC2)nnc1C1CCC(=O)NC1=O (stereo partly drawn) [PRTA-04] |
